One assay has as its system saphenous artery rings. Nature of the assay: Vasorelaxant effect in vitro (phenylephrine-contracted artery rings). The settings on record: rabbit saphenous artery rings, contraction induced by phenylephrine, concentration reducing contraction by 50%. On the set-up: species or system Rabbits. As for the experimental part: Rabbits are anesthetized and sacrificed by intravenous injection of thiopental sodium (about 50 mg/kg) and exsanguinated. The saphenous artery is removed and divided into rings 3 mm wide. The rings are mounted singly on in each case a pair of triangular hooks open at the end and made of 0.3 mm-thick special wire (Remanium®). Each ring is placed under an initial tension in 5 ml organ baths with Krebs-Henseleit solution which is at 37° C., is gassed with carbogen and has the following composition: NaCl 119 mM; KCl 4.8 mM; CaCl2×2H2O 1 mM; MgSO4×7H2O 1.4 mM; KH2PO4 1.2 mM; NaHCO3 25 mM; glucose 10 mM; bovine serum albumin 0.001%. The force of contraction is detected with Statham UC2 cells, amplified and digitized via A/D converters (DAS-1802 HC, Keithley Instruments, Munich) and recorded in parallel on chart recorders. Contractions are induced by addition of phenylephrine.
After several (generally 4) control cycles, the substance to be investigated is added in each further run in increasing dosage, and the height of the contraction achieved under the influence of the test substance is compared with the height of the contraction reached in the last preceding run. The concentration necessary to reduce the contraction reached in the preceding control by 50% is calculated from this (IC50). The standard application volume is 5 μl. The proportion of DMSO in the bath solution corresponds to 0.1%.

Assay [1] addresses T1, Heme-containing sGC (recombinant soluble guanylate cyclase) (Rattus norvegicus, UniProt P20595).
T1 construct: made in house
T1 sequence (P20595 1-619): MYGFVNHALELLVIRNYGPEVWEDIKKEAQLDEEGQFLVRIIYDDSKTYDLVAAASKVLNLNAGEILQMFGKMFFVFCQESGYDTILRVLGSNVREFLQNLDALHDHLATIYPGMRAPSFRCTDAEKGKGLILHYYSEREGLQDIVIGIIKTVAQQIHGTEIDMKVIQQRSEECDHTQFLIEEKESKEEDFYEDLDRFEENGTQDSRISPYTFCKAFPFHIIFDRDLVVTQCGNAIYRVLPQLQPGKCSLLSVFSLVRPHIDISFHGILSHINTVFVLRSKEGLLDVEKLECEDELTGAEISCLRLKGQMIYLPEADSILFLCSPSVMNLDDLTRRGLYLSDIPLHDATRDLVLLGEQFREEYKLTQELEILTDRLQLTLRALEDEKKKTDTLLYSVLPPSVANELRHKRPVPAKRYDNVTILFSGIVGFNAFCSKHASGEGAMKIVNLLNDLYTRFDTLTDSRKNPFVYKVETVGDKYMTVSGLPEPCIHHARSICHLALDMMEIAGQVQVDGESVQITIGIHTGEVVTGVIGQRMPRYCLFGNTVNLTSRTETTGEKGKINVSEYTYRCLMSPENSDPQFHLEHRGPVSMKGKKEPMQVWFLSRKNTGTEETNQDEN
T1 sequence (P19686 1-690 partner): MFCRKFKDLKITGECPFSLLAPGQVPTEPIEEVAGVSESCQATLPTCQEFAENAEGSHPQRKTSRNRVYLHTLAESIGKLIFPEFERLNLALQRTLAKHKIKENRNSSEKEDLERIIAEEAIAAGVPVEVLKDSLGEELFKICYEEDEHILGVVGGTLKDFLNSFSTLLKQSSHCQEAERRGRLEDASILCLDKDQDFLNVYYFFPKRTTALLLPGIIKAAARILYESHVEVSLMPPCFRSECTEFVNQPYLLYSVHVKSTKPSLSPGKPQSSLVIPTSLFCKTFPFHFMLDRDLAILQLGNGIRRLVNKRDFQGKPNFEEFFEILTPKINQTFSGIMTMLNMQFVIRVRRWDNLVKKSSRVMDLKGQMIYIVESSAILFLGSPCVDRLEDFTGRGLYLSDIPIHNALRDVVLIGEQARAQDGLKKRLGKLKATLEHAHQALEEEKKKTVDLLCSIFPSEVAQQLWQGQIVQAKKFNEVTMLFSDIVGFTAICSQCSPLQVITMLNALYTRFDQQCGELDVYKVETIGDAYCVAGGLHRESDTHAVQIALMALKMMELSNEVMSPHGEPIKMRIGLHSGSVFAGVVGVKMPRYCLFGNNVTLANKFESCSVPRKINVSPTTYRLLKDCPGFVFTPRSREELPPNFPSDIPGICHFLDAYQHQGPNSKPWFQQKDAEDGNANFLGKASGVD
Nature of the assay: Stimulation of recombinant soluble guanylate cyclase (sGC) in vitro, heme-containing enzyme. The format is biochemical. The source says: Hoenicka, E. M. Becker, H. Apeler, T. Sirichoke, H. Schroeder, R. Gerzer and J.-P. Stasch, “Purified soluble guanylyl cyclase expressed in a baculovirus/Sf9 system: Stimulation by YC-1, nitric oxide, and carbon oxide”, J. Mol. Med. 77 (1999), 14-23. The heme-free guanylate cyclase is obtained by adding Tween 20 to the sample buffer (0.5% in the final concentration).
(§1) The activation of sGC by a test substance is reported as n-fold stimulation of the basal activity.

Assay [2] concerns the target T2, Heme-free sGC (recombinant soluble guanylate cyclase) (Rattus norvegicus, UniProt P20595).
T2 construct: made in house
T2 sequence (P20595 1-619): T1 sequence (P20595 1-619)
T2 sequence (P19686 1-690 partner): T1 sequence (P19686 1-690 partner)
Nature of the assay: Stimulation of recombinant soluble guanylate cyclase (sGC) in vitro, heme-free enzyme. It counts as biochemical. The settings on record: 10 μM Example 9; heme-free enzyme obtained with 0.5% Tween 20. As for the experimental part:
Investigations on the stimulation of recombinant soluble guanylate cyclase (sGC) by the compounds according to the invention with and without sodium nitroprusside, and with and without the heme-dependent sGC inhibitor 1H-1,2,4-oxadiazole-(4,3a)-quinoxalin-1-one (ODQ) are carried out by the method described in detail in the following reference: M. Hoenicka, E. M. Becker, H. Apeler, T. Sirichoke, H. Schroeder, R. Gerzer and J.-P. Stasch, “Purified soluble guanylyl cyclase expressed in a baculovirus/Sf9 system: Stimulation by YC-1, nitric oxide, and […]”, J. Mol. Med. 77 (1999), 14-23. The heme-free guanylate cyclase is obtained by adding Tween 20 to the sample buffer (0.5% in the final concentration).
as §1

The record followed here is patent US8168821B2, “Cyclopropylacetic acid derivatives and use thereof” (Bayer Pharma Aktiengesellschaft, priority 2005, dated 2012).

pIC50: −log10 of the molar value.

`O=C(O)CC1(CCC(/C=C/c2ccccc2OCCCCCc2ccccc2)Cc2ccc(C(=O)O)cc2)CC1` (racemic) [Example 9, 4-((3E)-2-{2-[1-(Carboxymethyl)cyclopropyl]ethyl}-4-{2-[(5-phenylpentyl)oxy]phenyl}but-3-en-1-yl)benzoic acid] gave a negative-log IC50 (pIC50) in the assay with saphenous artery rings of 6.39. Moreover, in assay [1] (10 μM Example 9, no addition), the “Stimulation (n-fold) of heme-containing sGC, Basal” value amounted to 8.0 n-fold. In assay [1] (10 μM Example 9 plus 0.1 μM DEA/NO), the “Stimulation (n-fold) of heme-containing sGC, +0.1 μM DEA/NO” value was 109.2 n-fold. In assay [1] (10 μM Example 9 plus 10 μM ODQ), the “Stimulation (n-fold) of heme-containing sGC, +10 μM ODQ” value amounted to 41.0 n-fold. Besides, the “Synergism of combination with NO donor DEA/NO on heme-containing sGC” value in assay [1] (combination of Example 9 and DEA/NO) is listed as “no synergistic effect”. For the same compound, in assay [1] (with ODQ), the “Effect of heme-dependent sGC inhibitor ODQ on sGC activation” value was “not blocked”. Also, in assay [2], the “Stimulation (n-fold) of heme-free sGC, Basal” value came to 21.0 n-fold.
On to `CC(C)(C)c1ccc(COc2ccccc2/C=C/C(CCC2(CC(=O)O)CC2)Cc2ccc(C(=O)O)cc2)cc1` (racemic) [Example 6, 4-((3E)-4-{2-[(4-tert-Butylbenzyl)oxy]phenyl}-2-{2-[1-(carboxymethyl)cyclopropyl]ethyl}but-3-en-1-yl)benzoic acid], for which, in the assay with saphenous artery rings, the pIC50 is 7.48.
On to `CC(C)(C)c1ccc(COc2ccccc2/C=C/C(CCc2ccc(C(=O)O)cc2)CCC2(CC(=O)O)CC2)cc1` (racemic) [Example 3, 4-((4E)-5-{2-[(4-tert-Butylbenzyl)oxy]phenyl}-3-{2-[1-(carboxymethyl)cyclopropyl]ethyl}pent-4-en-1-yl)benzoic acid], for which the pIC50 with saphenous artery rings is 8.24.
`CC(C)(C)c1ccc(COc2ccccc2/C=C/C(CCC2(CC(=O)O)CC2)Cc2ccc(C(=O)O)cc2)cc1` (racemic) [Example 5] had a pIC50 in the assay on saphenous artery rings (Oryctolagus cuniculus) of 7.24.
On the same count and under the same terms, to `CC(C)(C)c1ccc(COc2ccccc2/C=C/C(CCc2ccc(C(=O)O)cc2)CCC2(CC(=O)O)CC2)cc1` (racemic) [Example 2, 4-((4E)-5-{2-[(4-tert-Butylbenzyl)oxy]phenyl}-3-{2-[1-(carboxymethyl)cyclopropyl]ethyl}pent-4-en-1-yl)benzoic acid] belongs 8.54.
`O=C(O)CC1(CCC(/C=C/c2ccccc2OCCCCCc2ccccc2)Cc2ccc(C(=O)O)cc2)CC1` (racemic) [Example 8, 4-((3E)-2-{2-[1-(Carboxymethyl)cyclopropyl]ethyl}-4-{2-[(5-phenylpentyl)oxy]phenyl}but-3-en-1-yl)benzoic acid] gave a pIC50 in the assay on saphenous artery rings of 5.99.
Regarding `CCN(CC)[N+]([O-])=NO` [DEA/NO, 2-(N,N-diethylamino)diazenolate 2-oxide, reference compound], the “Stimulation (n-fold) of heme-containing sGC by DEA/NO alone” value in assay [1] (0.1 μM DEA/NO, 0.0 μM Example 9) was determined as 101.0 n-fold.
`O=c1onc2cnc3ccccc3n12` [ODQ, 1H-1,2,4-oxadiazole-(4,3a)-quinoxalin-1-one, reference compound]: the “Stimulation (n-fold) of heme-containing sGC with ODQ alone” value in assay [1] (10 μM ODQ, 0.0 μM Example 9) is 3.7 n-fold.

In general, pIC50 refers to the IC50 on a negative log10 scale, so that one unit is a factor of ten. A low value points to a large IC50.
